In patent US10035800B2 (AbbVie Inc., priority 2013, dated 2018):

Assays:
BRD4 (BDI_K57-E168) = target: T1, BRD4 (BDI_K57-E168) (Homo sapiens, UniProt O60885); test: TR-FRET bromodomain binding assay, first bromodomain of BRD4; conditions: 100 nM probe
T1 construct: BD1: amino acids K57-E168; made in house
Method in brief: (§1)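 TR-FRET displacement of an Alexa647-labelled BET-inhibitor probe from His-tagged BRD4 BD1 or BD2 (8 nM), read via 1 nM Eu-anti-His antibody after 1 h at room temperature. Buffer was 20 mM sodium phosphate pH 6.0 with 2% DMSO. Probe was 100 nM for BDI and 30 nM for BDII. IC50 came from 4-parameter fits, and Ki from IC50, probe Kd and probe concentration.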

BRD4 (BDII_E352-M457) = target: T2, BRD4 (BDII_E352-M457) (Homo sapiens, UniProt O60885); test: TR-FRET bromodomain binding assay, second bromodomain of BRD4; conditions: 30 nM probe
T2 construct: protocol; made in house
Method in brief: as §1

[1] = test system: breast cancer cell line MX-1; test: MX-1 cell line proliferation assay; type: cell-based; conditions: MX-1 cells, 3-day proliferation assay, Cell Titer Glo; read-out: Cellular proliferation: EC50
Method in brief: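 MX-1 cells at 5000/well, in RPMI 1640 with 10% FBS, were exposed to compounds for 3 days. Final concentrations ranged 3 μM–0.1 nM or 1 μM–0.03 nM, in 3-fold steps. Cell Titer Glo luminescence was normalized to DMSO and fitted sigmoidally for EC50; overall MSR 2.1.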

[2] = test system: IL-6 (Interleukin-6) production; test: LPS (lipopolysaccharide) induced IL-6 production mouse assay; type: in vivo, mice; conditions: oral administration 1 h before LPS 2.5 mg/kg ip, serum 2 h after LPS, p < 0.05 vs vehicle
Procedure: LPS (Lipopolysaccharide) Induced IL-6 Production Mouse Assay
Compounds of the Examples listed in Table 2 were assayed for their ability to inhibit LPS (lipopolysaccharide) induced IL-6 (Interleukin-6) production in mice. Fox Chase SCID® female mice (Charles Rivers Labs, 5 per group) or CD1 female mice (5 per group) received an intraperitoneal challenge of lipopolysaccharide (2.5 mg/kg, L2630 E. coli 0111:B4) one hour after oral administration of compounds. Mice were euthanized 2 hours after lipopolysaccharide injection, blood was removed by cardiac puncture, and then the serum harvested from the blood samples was frozen at −80° C. On the day of the assay the serum samples were brought to room temperature and then diluted 1:20 in phosphate-buffered saline containing 2% bovine serum albumin. Interleukin-6 measurements were performed using a cytokine assay from Meso Scale Discovery (Gaithersburg, Md.) for mouse serum analysis according to the manufacturer's protocol and read on a SECTOR Imager 6000 (Meso Scale Discovery, Gaithersburg, Md.) instrument. Statistical analysis was performed using Prism software (version 5.0) incorporating Dunnett's one way ANOVA. The IL-6 mean and standard deviation of the group of vehicle treated animals were compared with the IL-6 mean and standard deviation of the group treated with drug. A p value <0.05 means that there is less than a 5% probability that the mean values in the two groups are equal.

[3] = TR-FRET assay protocol G (compound 0.92 μM-15 pM)
[4] = TR-FRET assay protocol E (compound 9.19 μM-150 pM)

Compound | Ki (BRD4 (BDI_K57-E168); [3]) [nM] | Ki (BRD4 (BDII_E352-M457); [3]) [nM] | EC50 [1] [nM] | % inhibition of LPS induced IL-6 production ([2]; mouse strain CD1) [%] | Ki (BRD4 (BDI_K57-E168); [4]) [nM] | Ki (BRD4 (BDII_E352-M457); [4]) [nM] | % inhibition of LPS induced IL-6 production ([2]; mouse strain SCID) [%]
4-(2,4-difluorophenyl)-10-methyl-7-((methylsulfonyl)methyl)-11-oxo-3,4,10,11-tetrahydro-1H-1,4,10-triazadibenzo[cd,f]azulene-5-carbonitrile [Example 206] | 0.96 | 0.51 | 1.41 | 76 | – | – | –
4-((4,4-difluorocyclohexyl)methyl)-10-methyl-7-((methylsulfonyl)methyl)-3,4-dihydro-1H-1,4,10-triazadibenzo[cd,f]azulen-11(10H)-one [Example 27] | – | – | 1.27 | – | 1.19 | 1.01 | 79
4-(cyclopropylmethyl)-10-methyl-7-((methylsulfonyl)methyl)-3,4-dihydro-1H-1,4,10-triazadibenzo[cd,f]azulen-11(10H)-one [Example 6] | – | – | 2.01 | – | 1.08 | 1.71 | 64
5,7-difluoro-10-methyl-4-((tetrahydrofuran-3-yl)methyl)-3,4-dihydro-1H-1,4,10-triazadibenzo[cd,f]azulen-11(10H)-one [Example 42] | 1.56 | 2.03 | 5.44 | 86 | – | – | –
10-methyl-7-((methylsulfonyl)methyl)-4-((tetrahydro-2H-pyran-3-yl)methyl)-3,4-dihydro-1H-1,4,10-triazadibenzo[cd,f]azulen-11(10H)-one [Example 29] | – | – | 1.03 | – | 6.95 | 2.74 | 76
COCCC1c2c[nH]c3c(=O)n(C)cc(c23)-c2cc(CS(C)(=O)=O)ccc2N1CC1CC1 (racemic) [Example 15, 4-(cyclopropylmethyl)-3-(2-methoxyethyl)-10-methyl-7-((methylsulfonyl)methyl)-3,4-dihydro-1H-1,4,10-triazadibenzo[cd,f]azulen-11(10H)-one] | – | – | 8.75 | – | 5.22 | 0.631 | 68
Cn1cc2c3c(c[nH]c3c1=O)CN(C1CCCOC1)c1ccc(CS(C)(=O)=O)cc1-2 (racemic) [Example 182, 10-methyl-7-((methylsulfonyl)methyl)-4-(tetrahydro-2H-pyran-3-yl)-3,4-dihydro-1H-1,4,10-triazadibenzo[cd,f]azulen-11(10H)-one] | 1.31 | 2 | 1.08 | 77 | – | – | –
CCS(=O)(=O)c1ccc2c(c1)-c1cn(C)c(=O)c3[nH]cc(c13)CN2[C@H](C)c1ccccc1 [Example 265, (R)-7-(ethylsulfonyl)-10-methyl-4-(1-phenylethyl)-3,4-dihydro-1H-1,4,10-triazadibenzo[cd,f]azulen-11(10H)-one] | 25.6 | 4.21 | 170 | – | – | – | –
Cn1cc(-c2[nH]c3c(=O)n(C)cc4c3c2CN(c2ccc(F)cc2F)c2ccc(S(C)(=O)=O)cc2-4)cn1 [Example 270, 4-(2,4-difluorophenyl)-10-methyl-2-(1-methyl-1H-pyrazol-4-yl)-7-(methylsulfonyl)-3,4-dihydro-1H-1,4,10-triazadibenzo[cd,f]azulen-11(10H)-one] | 11 | 3.35 | 80.7 | – | – | – | –
N-(4-(4-fluorophenyl)-10-methyl-11-oxo-3,4,10,11-tetrahydro-1H-1,4,5,10-tetraazadibenzo[cd,f]azulen-7-yl)ethanesulfonamide [Example 22] | 0.875 | 0.95 | 1.71 | – | – | – | –
tert-butyl 4-(4-(4-fluorophenyl)-10-methyl-7-((methylsulfonyl)methyl)-11-oxo-3,4,10,11-tetrahydro-1H-1,4,10-triazadibenzo[cd,f]azulene-3-carbonyl)piperazine-1-carboxylate [Example 35] | 35.5 | 95.1 | 331 | – | – | – | –
